Laboratory results from patent publication US20090042993A1, “IDENTIFICATION OF NOVEL POST-TRANSLATIONAL PROTEIN MODIFICATIONS” (priority 2007, published 2009).

Test system: BACE1
Assay: BACE1 steady-state levels by Western blot in stably transfected CHO cells
Assay type: cell-based, human
Procedure: Chinese Hamster Ovary (CHO) cells were grown in DMEM (Gibco BRL—Invitrogen, Carlsbad, Calif.) supplemented with 10% fetal bovine serum (FBS) and penicillin/streptomycin (Mediatech, Inc., Herndon, Va.) as described before (Puglielli et al., 2001, Nat. Cell Biol. 3: 905-912; Puglielli et al., 2003, J. Biol. Chem. 278: 19777-19783; Costantini et al., 2005, Biochem. J. 391: 59-67; Costantini et al., 2006, EMBO J. 25: 1997-2006). Cells were maintained in a humidified atmosphere with 5% CO2. For ceramide treatment, C6-ceramide (also simply called ceramide herein) was administered at the final concentration of 10 μM; treatment was started when cells were ˜30% confluent and carried out for 4 days, unless specified otherwise. Treatment with proteasome inhibitors MG-132 (5 μM) and lactacystin (10 μM) was done for 10 hours, as described earlier (Qing et al., 2004, FASEB J. 18: 1571-1573).
Cell lysates were prepared in GTIP buffer (100 mM Tris-pH 7.6, 20 mM EDTA, 1.5 M NaCl) with 1% Triton X-100 (Roche, Basel, Switzerland), 0.25% NP40 (Roche), and a protease inhibitor cocktail (Roche) as described before (Puglielli et al., 2003, J. Biol. Chem. 278: 19777-19783; Costantini et al., 2005, Biochem. J. 391: 59-67). Briefly, cell monolayers were washed twice in PBS, scraped, transferred into eppendorf tubes, and centrifuged at 8,000 rpm for 5 min in a table-top centrifuge. Cell pellets were then lysed in ice for 30 min with the buffer indicated above, and centrifuged again at 14,000 rpm prior to the recollection of the protein extracts. Proteins were quantitated with the BCA Protein Assay (Pierce, Rockford, Ill.) following the manufacturer's instructions.
For the immunoprecipitation of BACE1, cell lysates were pre-cleared with BioMag Protein A (Polysciences, Inc., Warrington, Pa.); beads were used at the concentration of 15 μl of the slurry per sample and separated with a magnetic holder. BACE1 was then immunoprecipitated with anti-BACE1 antibodies overnight and recovered with BioMag Protein A as above. The immunoprecipitate-bead complexes were washed 3 times in PBS and boiled for 10 min in SDS sample buffer (Invitrogen) with β-mercaptoethanol. Beads were then separated and the samples were analyzed by reducing SDS-PAGE.
Western blotting was performed on 10% Bis-Tris, 4-12% Bis-Tris, or 7% Tris-Acetate SDS-PAGE systems (NuPAGE; Invitrogen) as described (Puglielli et al., 2001, Nat. Cell Biol. 3: 905-912; Puglielli et al., 2003, J. Biol. Chem. 278: 19777-19783; Costantini et al., 2005, Biochem. J. 391: 59-67; Costantini et al., 2006, EMBO J. 25: 1997-2006). The following antibodies were used: anti-BACE1 N-terminal (monoclonal antibody; R&D Systems, Minneapolis, Minn.); anti-BACE1 C-terminal (polyclonal antibody; Abcam, Cambridge, Mass.); anti-pro-BACE1 (polyclonal; Abcam); anti-acetylated lysine (monoclonal; Abcam); anti-calreticulin (ER marker, polyclonal; Abcam); anti-58 K Golgi/formiminotransferase cyclodeaminase (Golgi marker, polyclonal; Abcam); anti-syntaxin (Golgi marker, monoclonal; Abcam); anti-EEA1 (endosomes, monoclonal; BD Transduction Laboratories, Lexington, Ky.); anti-actin (polyclonal; Cell Signaling, Danvers, Mass.). Secondary antibodies (Amersham) were used at a 1:6000 dilution. Binding was detected by chemiluminescence (LumiGLO kit; KPL, Gaithersburg, Md.). Only a representative blot of at least three different experiments is shown throughout the paper.
FIG. 1 illustrates how BACE1 is transiently acetylated in the lumen of the ER. For this experiment, CHO cells expressing human BACE1 were treated with C6-ceramide (also simply called ceramide herein) for different periods of time. BACE1 was then immunoprecipitated and analyzed by Western blotting. FIG. 1(A): CHO cells stably expressing BACE1 were treated with ceramide for the indicated time. BACE1 was immunoprecipitated from total cell lysates, separated on a 7% Tris-Acetate NuPAGE system, and then analyzed by Western blot using either anti-BACE1 or anti-acetylated lysine antibodies. […]

CCCCCCCCCCCCC/C=C/[C@@H](O)[C@H](CO)NC(=O)CCCCC [ceramide, C6-ceramide]
steady-state levels of immature and mature BACE1 (CHO cells expressing human BACE1, ceramide 10 μM, apparent plateau at day 4): progressive increase in the steady-state levels
steady-state levels of BACE1Ala (CHO cells stably expressing BACE1Ala grown with ceramide): not affected
